Experimental findings from US8633186B2, “Modulation of chemosensory receptors and ligands associated therewith” (Senomyx Inc., priority 2007, dated 2014) are described below.

SMILES strings stand for the structures. Bounds are passed on as bounds.

Series [1] has as its system human panelists (which sample is sweeter). Put plainly: Sweet flavor and sweet flavor enhancement, human panelists, paired comparison test. The class given is in vivo. As to the method:
Test samples containing experimental compounds are presented in pairs to the panelist and they are asked to determine which of the sample is sweeter. A group of 10-16 or more panelists participated in each test. Subjects refrained from eating or drinking (except water) for at least 1 hour prior to the test. Subjects rinsed with water several times to clean the mouth.
All samples are prepared with ethanol to ensure dispersion of the compound in solution. This includes samples without compound; all solutions are balanced for 0.1% ethanol.
Samples are also prepared with low sodium buffer (pH 7.1) in place of water. Buffer contains 0.952 g of KCl, 5.444 g of Na2HPO4, and 0.952 g of KH2PO4 in 40 L of DIUF water. Sample volumes are usually 20 ml.
In one paired comparison test, the panelist is presented with two different samples and asked to identify the sample which is sweeter. The samples within a paired comparison test are presented in a randomized, counterbalanced order. Panelists have up to a 1 minute delay between taste tests to clear the mouth of any tastes.
Binomial probability tables are used to determine the probability of the correct number of responses occurring for each test at alpha=0.05.

The subject of series [2] is human panelists (perceived sweetness intensity). Put plainly: Sweet flavor and sweet flavor enhancement, human panelists, scaling test. The class given is in vivo. The note with it: for Average sweetness score (line scale 0 to 15): Table 29; for Average Sweetness: Table 36, n = 13. An excerpt:
Test samples containing experimental compounds were compared to a dose-response curve for perceived sweetness intensity of sweeteners (such as, for example, sucralose, sucrose, fructose and other sweeteners) concentrations to determine equivalent sweetness intensity.
A group of eight or more panelists tasted solutions including sweeteners at various concentrations, as well as the experimental compound both with and without added sweetener. Panelists then rated sweetness intensity of all samples on a structured horizontal line scale, anchored from 0 to 15, where 0 equals no sweetness and 15 equals equivalent sweetness to a 15% sucrose sample. Scores for sweetness intensity were averaged across panelists. Then using the average scores and/or equation of the line for the sweetener dose-response curve, equivalent sweetness concentrations were determined for the samples containing experimental compounds.
Subjects had been previously familiarized with the key attribute taste and were trained to use the 0 to 15 point line scale. Subjects refrained from eating or drinking (except water) for at least 1 hour prior to the test. Subjects ate a cracker and rinsed with water several times to clean the mouth.
Sweetener solutions are provided at a wide range of concentrations such as 100 ppm, 200 ppm, 300 ppm, 400 ppm, and 500 ppm for sucralose, or between 0% and 12% for sucrose or fructose, in order to create a dose-response curve. Samples containing experimental compound were prepared both alone and in a 100 ppm sucralose solution or a 6% sucrose or fructose solution. All samples were made up in low sodium buffer pH 7.1. In order to aid dispersion, solutions can be made up in 0.1% ethanol.
The solutions were dispensed in 20 ml volumes into 1 oz. sample cups and served to the subjects at room temperature. All samples were presented in randomized counterbalanced order to reduce response bias. Further, two sessions of testing may be used to check panel precision.
Subjects tasted each sample individually and rate sweetness intensity on the line scale prior to tasting the next sample. All samples were expectorated. Subjects may retaste the samples but can only use the volume of sample given. Subjects must rinse with water between samples. Eating an unsalted cracker between samples may be required depending on the samples tasted.
The scores for each sample were averaged across subjects and standard error was calculated. The dose-response curve was plotted graphically, and this may be used to ensure the panel is rating accurately; i.e., increasing the concentration of sucralose should correspond to increased average scores for sweetness. A 2-way ANOVA (factors being samples and panelists) and multiple comparison tests (such as Tukey's Honestly Significant Difference test) can be used to determine differences among samples and/or panelists. A 3-way ANOVA, with sessions as the third factor, can be used to determine if there is any difference in the ratings between sessions.

The mark [3] stands for this setting: Table 35, 6% Fructose alone vs 6% Fructose + 100 μM C20, of n = 19.

For `N#Cc1c(N)c2ccccc2[nH]c1=O` [Example 71, 4-Amino-2-oxo-1,2-dihydroquinoline-3-carbonitrile], the melting point was > 250 °C.

For the compound `Cc1sc2[nH]c(=S)nc(N)c2c1C` [Example 1, 4-Amino-5,6-dimethylthieno[2,3-d]pyrimidine-2(1H)-thione], the melting point was > 260 °C.

In the case of `COC(=O)c1c(N)c2ccccc2[nH]c1=O` [Example 68, Methyl 4-amino-2-oxo-1,2-dihydroquinoline-3-carboxylate], the melting point was 236 °C.

Turning to `Nc1nc(=O)[nH]c2sc3c(c12)CCOC3` [Compound 568], the “Sample selected as more sweet by panelists, Total” value in series [1] (Table 33, 6% Fructose + 100 μM compound vs 6% Fructose, of n = 26 (13 panelists × 2 reps)) was 20.

With `O=C(CO)[C@@H](O)[C@H](O)[C@H](O)CO` [Fructose, fructose], the “Average sweetness score (line scale 0 to 15)” value is given as 6.9 in series [2] (6% fructose alone), 8.6 in series [2] (8% fructose alone), 9.3 in series [2] (9% fructose alone) and 9.5 in series [2] (10% fructose alone). The figures for the “Average Sweetness” value in series [2] (2% Fructose alone), in series [2] (4% Fructose alone) and in series [2] (6% Fructose alone) were 2.3, 4.2 and 5.9, respectively. The “Sample selected as more sweet by panelists, Total” value is given as 6 in series [1] (Table 33, 6% Fructose alone vs 6% Fructose + 100 μM compound, of n = 26); 6 in series [1] (Table 34, 6% Fructose alone vs 6% Fructose + 100 μM C19, of n = 24); 0 in series [1] (setting [3]). Moreover, the “Sample selected as more sweet by panelists, Test 1” value was 0 in series [1] (setting [3]); 5 in series [1] (Table 37, 6% Fructose alone vs 6% fructose + 25 μM C21, of n = 25); 13 in series [1] (Table 38, 7% Fructose alone vs 6% fructose + 25 μM C21, of n = 25).

As to `CCCOc1cccc2c1C(N)=NS(=O)(=O)N2` [Example 111, 4-Amino-5-(propyloxy)-1H-benzo[c][1,2,6]thiadiazine-2,2-dioxide], the melting point fell in the range of 229 to 230 °C.

Take `N#Cc1c(Cl)c2ccccc2[nH]c1=O` [Example 72, 4-chloro-2-oxo-1,2-dihydroquinoline-3-carbonitrile]: the melting point is > 250 °C.

As for `Cc1sc2[nH]c(=O)nc(N)c2c1C.Cl`, the melting point is > 260 °C.

In the case of `CCCNC(=O)C(C)(C)COc1cccc2c1C(N)=NS(=O)(=O)N2` [Example 215, 3-(4-Amino-2,2-dioxide-1H-benzo[c][1,2,6]thiadiazin-5-yloxy)-2′,2′-dimethyl-N-propylpropanamide], the melting point was in the range of 225 to 226 °C.

As to `Nc1c(C(=O)O)c(=O)[nH]c2ccccc12` [Example 66, 4-Amino-2-oxo-1,2-dihydroquinoline-3-carboxylic acid], the melting point is > 250 °C.

With `NC1=NS(=O)(=O)Nc2cccc(OC3CCCC3)c21` [Example 169, 4-Amino-5-(cyclopentoxy)-1H-benzo[c][1,2,6]thiadiazine-2,2-dioxide], the melting point was > 260 °C.

Turning to `Cc1cccc2[nH]c(=S)nc(N)c12` [Example 3, 4-Amino-5-methylquinazoline-2(1H)-thione], the melting point was > 250 °C.

As a reminder, the melting point is the temperature of the solid-liquid transition.
